In PMC7932537, “Quantitative profiling of protease specificity” (PLoS Computational Biology, 2021) one finds avg_RP and relative_probability data, which are given here for 55 substances.

The subject of the experiment is MMP-2. In words: Substrate phage display with NGS: relative probability (RP) of P3-P1' tetramer clusters. The note with it: for avg_RP: MMP2 - no binning. It is filed as biochemical, human.
Setting [1] is: average relative probability of the tetramer, redundant tetramers averaged out.
The mark [2] stands for this setting: average relative probability of the P3-P1' tetramer, redundant tetramers have been averaged out.
Setting [3] is: average relative probability (RP) of the P3-P1' tetramer, redundant tetramers have been averaged out.

Substance WMNL returned an avg_RP under setting [1] of 0. Same read-out and setting: to WQGL belongs 12.939. With WQNL, the avg_RP under setting [2] came out at 6.2916. The substance WRAF returned an avg_RP under setting [1] of 9.8395. The substance WRAL showed an avg_RP under setting [1] of 22.4074. On the same count and under the same terms, to WRAY belongs 17.4833. WRGL had an avg_RP under setting [1] of 23.375.

Substance WRHL had an avg_RP under setting [2] of 0.4087. For the substance WRNL, the avg_RP under setting [1] is 6.7583. Substance WSGM displayed an avg_RP under setting [2] of 18.3143. In turn, WSNL showed an avg_RP under setting [2] of 17.9326.

In turn, WSSL returned an avg_RP under setting [1] of 16.6561. Under setting [1], WSWL yielded an avg_RP of 7.8776.

For WYGI, the avg_RP under setting [1] is given as 0.0533. With WYGM, under setting [2], the avg_RP amounted to 0.0531. Substance YAAL [P3-P1' tetramer cluster] returned a relative_probability (tetramer clusters unique to the MMP-2 selectome, MMP-2 RP) of 30.40.

As to YAGL, under setting [1], the avg_RP is given as 20.9112. Under setting [1], YAHL returned an avg_RP of 18.7061.

Substance YAHM gave an avg_RP under setting [3] of 12.8446.

The substance YAHY came in with an avg_RP under setting [3] of 10.8158.

Substance YANL yielded an avg_RP under setting [2] of 27.7486.

As for YANM, the avg_RP under setting [2] is given as 22.6837. Turning to YASL, the avg_RP under setting [1] is on record as 26.9916. YASM came in with an avg_RP under setting [2] of 24.1553.

Take YAWM: the avg_RP under setting [3] stood at 14.9473. YAYI came in with an avg_RP under setting [2] of 1.7086. Regarding YFNL, the avg_RP under setting [2] turned out to be 0. In turn, YFPL had an avg_RP under setting [2] of 0.1432. Regarding YFSM, under setting [2], the avg_RP worked out at 0.0661. With YGEL, under setting [2], the avg_RP was found to be 16.6627. On the same count and under the same terms, to YGHL belongs 11.3746. YGNL: under setting [1], the avg_RP is 24.0019. Under setting [2], YGNM had an avg_RP of 13.8836.

Consider YHHL, for which the avg_RP under setting [1] was 0. For YLHL, the avg_RP under setting [1] was found to be 0.4077. As to YLNL, the avg_RP under setting [3] was found to be 0.3873. The same measure, in the same setting: to YLNY belongs 1.6791; to YLPL, 2.3089. Turning to YLPM, the avg_RP under setting [2] is reported as 0.4306. Under setting [2], YMGL showed an avg_RP of 0.0982. YMHI showed an avg_RP under setting [3] of 0. YMNI gave an avg_RP under setting [2] of 0. YMSL yielded an avg_RP under setting [1] of 0.0725. On the same count and under the same terms, to YNHL belongs 3.693. Under setting [1], YQGL yielded an avg_RP of 4.3322. YQSL showed an avg_RP under setting [3] of 16.6669.

YRAL yielded an avg_RP under setting [3] of 8.2547.

Turning to YRFM, the avg_RP under setting [3] was determined as 0. In turn, YRGL returned an avg_RP under setting [2] of 5.4447. For the substance YRHM, under setting [2], the avg_RP stood at 0.3212. In turn, YRSL came in with an avg_RP under setting [2] of 1.5061. YRSM: under setting [3], the avg_RP turned out to be 5.2577. Under setting [3], YSHL yielded an avg_RP of 14.1084. On to YSNL, for which, under setting [2], the avg_RP is recorded as 25.2832. Under setting [2], YYGL had an avg_RP of 0.142.
